Patent US7786042B2, “Fluridone as an anti-inflammatory agent” (Universita' Degli Studi Di Genova, priority 2005, dated 2010)

Legend:
human granulocytes = assay: Intracellular calcium [Ca2+]i in granulocytes; type: cell-based; conditions: 10 min after addition of 10 μM ABA; basal value 50±2 nM; n=4
Procedure: Granlocytes were isolated by density gradient centrifugation from the peripheral blood of healthy donors, after informed consent. Contaminating erythrocytes were removed by hypotonic lysis. […] The increase of [cADPR]i in turn induces a progressive rise of [Ca^2+]i, from a basal value of 50±2 nM to 170±25 nM after 10 min from the addition of 10 μM ABA (n=4). […] The increase of the [Ca^2+]i induced by ABA in granulocytes is in turn responsible for activation of several functional activities typical of these cells. The functional effects induced by ABA (at concentrations ranging between 0.2 and 20 μM) in granulocytes include stimulation of the production of reactive oxygen species (ROS), measured through the cytochrome c […] (FIG. 2A), and of nitric oxide (NO), measured as accumulation of nitrite, the end-product of NO […] (FIG. 2B).

[1] = tested on: laboratory animals (mice, rats, dogs, fish and birds); conditions: even at high concentrations; cited from earlier work
[2] = cited from earlier work

Compound | [Ca2+]i (human granulocytes) | toxic, mutagenic, teratogenic or cancerogenic effects [1] | maximum permissible intake allowed in humans ([2]; from chronic toxicity in rats fed with fluridone, dose reduction of two logarithms) | ADI (acceptable daily intake) ([2]; humans)
CC1=CC(=O)CC(C)(C)[C@@]1(O)/C=C/C(C)=C\C(=O)O (racemic) [ABA, (±)-cis, trans ABA] | 170 ± 25 nM | – | – | –
Cn1cc(-c2ccccc2)c(=O)c(-c2cccc(C(F)(F)F)c2)c1 [Fluridone, 1-methyl-3-phenyl-5-(α,α,α-trifluoro-m-tolyl)-4-pyridone] | – | absence of toxic, mutagenic, teratogenic or cancerogenic effects | 4.8 mg/kg/day | 0.08 mg/Kg/die
